Assay [1] has as its system HUVEC (human umbilical vein endothelial cell). Kind of assay: SRB cytotoxicity assay, HUVEC normal cells. In kind it is cell-based. The conditions noted are these: for IC50: Homo sapiens, HUVEC, 72 h, SRB, normal cell line. A general note: Sulforhodamine B stains cellular protein and so reports cell mass.
Assay [2] has as its system PC-3 (human prostate cancer). As to the kind of experiment: SRB cytotoxicity assay, PC-3. The class given is cell-based. The conditions noted are these: 72 h.
Assay [3] concerns HEp-2 (human larynx epidermal cancer). The conditions noted are these: footnote c; ref Dong et al.[19]; cited from earlier work.
Assay [4] relates to CHO (Chinese hamster ovary). The conditions noted are these: footnote c; ref Dong et al.[19]; cited from earlier work.
The subject of assay [5] is HeLa (human cervix cancer). The arrangement: method as in Dong et al.[19]. The conditions noted are these: footnote c; ref Dong et al.[19]; cited from earlier work.
In assay [6] the test system is PC-3 cells. As to the kind of experiment: Hoechst 33258 nuclear chromatin condensation, PC-3. The class given is cell-based, human. The conditions noted are these: PC-3, 72 h; VP-16 0.5 and 1 μM; 1i 1, 2 and 4 μM. On the procedure: (§1) Figure 10 Induction of apoptosis by active compound 1i and VP-16 at the indicated concentrations on PC-3 cells. (a) 72 h after the treatment of these compounds at the indicated concentrations, cells were fixed, washed with PBS, stained with Hoechst 33258, and analyzed for morphological characteristics associated with apoptosis by fluorescence microscopic analysis (×20). (b) Compound 1i triggered changes of pro-caspase 3 and PARP by Western blotting analysis. Cells were lysed after 72 h treatment with 1i at the concentration (1, 2 and 4 μM). The lysates were resolved on a 10% SDS-PAGE, transferred on to a nitrocellulose membrane and probed for cleaved caspase 3 and PARP. β-actin was used as a loading control.
Condensation of nuclear chromatin is usually the late apoptotic event and is detected by staining Hoechst 33258[43]. PC-3 cells containing 2.0 × 10^5 cells/well were cultured on coverslips, and kept in six-well plates for 12 h. After 72 h treatment with 1i and VP-16, Hoechst 33258 staining was carried out according to the kit’s procedure (Beyotime Institute Biotechnology, China). The cells were viewed under a fluorescence microscopy (Olympus BX53 + DP72) with a ×20 objective lens.

Assay [7] relates to HepG2 (human liver cancer). Kind of assay: SRB cytotoxicity assay, HepG2. In kind it is cell-based. The conditions noted are these: 72 h.
For assay [8], the system named is PC-3 cells. As to the kind of experiment: Cell cycle analysis (PI staining, flow cytometry). The conditions noted are these: PC-3, 48 h. The class given is cell-based, human. Background: In flow cytometry, cells or beads pass a laser one at a time.
Description: The cultured cells were treated with these compounds at the indicated concentrations for 48 h, then harvested, and analyzed by flow cytometry. […] Each experiment was performed in triplicate.
The cell cycle arrest on PC-3 and HepG2 cells was detected with PI staining assay (Sigma) as described previously[19]. After treatment with samples at the set concentrations for 48 h, cells were centrifuged and fixed in 70% ethanol at 4 °C refrigerator 12 h and then resuspended in PBS (100 μL RNase A and 400 μL PI). Cellular DNA content was measured using a FACSCalibur flow cytometer with Modfit LT 3.0 software. Twenty thousand cells were collected per sample. Mean values are presented from three independent experiments.
Assay [9] concerns canonical p50/p65 NF-κB signaling in PC-3 cells. Kind of assay: NF-κB luciferase reporter assay, TNF-α-induced. The class given is cell-based, human. The conditions noted are these: 10 μM, 8 h, TNF-α 50 ng/mL. An excerpt:
The canonical NF-κB signaling pathway is a target for developing therapeutics for multiple human diseases, including cancer and chronic inflammatory diseases[46],[47]. Many STLs are known modulators of NF-κB signaling[7],[48]. In particular, two famous STLs parthenolide and helenalin have been certified to covalently target Cys38 of NF-κB p65 through hetero-Michael addition between exocyclic methylene butyrolactones and biological thiol of Cys38[49],[50]. […] To test the inhibition of active compound in NF-κB signaling, 1i and parthenolide (P, positive control) were screened for inhibitory activity toward canonical p50/p65 NF-κB signaling with a cellular luciferase assay (Fig. 12)[51]. […] The observation that 1i and P are comparably potent in this assay hints at the possibility that 1i may also have similar properties like 1β-hydroxy alantolactone and parthenolide in cells.
Figure 12 NF-κB-luciferase inhibition assay in PC-3 cells. PC-3 cells with a stably transfected NF-κB luciferase reporter were stimulated with TNF-α (50 ng/mL) (except for noninduced control, Non-Ind) and different dose of parthenolide (P) and 1i for 8 h. Normalized luminescence was plotted as NF-κB luciferase activity compared to control (%).
PC-3 cells (8000 cells/well) were placed in a 96-well plate and the cells were then transfected with pNF-κB-Luc expression plasmid reference to the method.
A general note: A reporter such as luciferase makes a cellular process visible.

The test system of assay [10] is HeLa (human cervix cancer). Kind of assay: SRB cytotoxicity assay, HeLa. The class given is cell-based. The conditions noted are these: 72 h, mean ± SD.
Assay [11] concerns CHO (Chinese hamster ovary). Kind of assay: SRB cytotoxicity assay, CHO normal cells. The class given is cell-based. The conditions noted are these: Cricetulus griseus, 72 h, normal cell line. An excerpt:
(§2) All the synthesized derivatives of 1 and 2 were screened for their anticancer activities against four human cancer cell lines (HeLa, PC-3, HEp-2 and HepG2) and two normal cell lines (CHO and HUVEC) using the sulforhodamine B (SRB) assay.
(§3) PC-3 (human prostate cancer), HepG2 (human liver cancer) and CHO (Chinese hamster ovary) cell lines were obtained from Shanghai Institute of Biochemistry and Cell Biology, Chinese Academy of Sciences. HeLa (human cervix cancer), HUVEC (human umbilical vein endothelial cells) and HEp-2 (human laryngeal cancer) cell lines were granted by Prof. Lei of college of life sciences, Northwest A&F University. The six cell lines were grown in RPMI-1640 (Gibco) containing 10% (v/v) thermally inactivated fetal bovine serum (FBS), penicillin (100 KU/L) and streptomycin (100 KU/L) at 37 °C in a 5% CO2 humidified incubator.
(§4) In vitro cytotoxicity was assessed by using the SRB colorimetric assay refer to previous methods[19],[42].

For assay [12], the system named is HEp-2 (human larynx epidermal cancer). As to the kind of experiment: SRB cytotoxicity assay, HEp-2. The class given is cell-based. The conditions noted are these: 72 h, mean ± SD.
Description: as §2, §3, §4

Another assay deals with HepG2 cells. Kind of assay: Hoechst 33258 nuclear morphology, HepG2. The class given is cell-based, human. The conditions noted are these: HepG2, 72 h. On the procedure:
Figure S2. Induction of apoptosis by active compounds 1 and 1i at the indicated concentrations on HepG2 cells. 72 h after the treatment of these compounds at the indicated concentrations, cells were fixed, washed with PBS, stained with Hoechst 33258, and analyzed for morphological characteristics associated with apoptosis by fluorescence microscopic analysis (20×). NMR spectra

The test system of assay [13] is pro-caspase 3 and PARP in PC-3 cells. Kind of assay: Western blotting of pro-caspase 3 and PARP. The class given is cell-based, human. The conditions noted are these: PC-3, 72 h, 1, 2 and 4 μM. On the procedure: as §1
PC-3 cells were treated with the indicated concentrations (1, 2 and 4 µM) of 1i for 72 h, cell were collected and lysed. The protein concentration was measured by BCA method, and equal amount proteins were electrophoresed on 10% SDS-PAGE gel, electrotransferred onto NC membrane, and incubated with appropriate primary and secondary antibodies, protein blots were tested by ECL solution and ChemiDoc XRS+ imaging system (Bio-Rad, USA).

The test system of a further assay is cancer cells. The arrangement: method as in PMID 24763364, PMID 27262408. The conditions noted are these: ref [19],[33]; cited from earlier work.
The mark [14] stands for this setting: mean ± SD, read-out: IC50 HepG2.

Structures are written as SMILES. Like-named read-outs stand apart in the source and are kept apart here.

A word on the IC50: it is the point on the concentration scale where inhibition reaches its midpoint.

With `COc1cc([C@@H]2c3cc4c(cc3[C@@H](O[C@@H]3O[C@@H]5CO[C@@H](C)O[C@H]5[C@H](O)[C@H]3O)[C@H]3COC(=O)[C@H]23)OCO4)cc(OC)c1O` [VP-16, etoposide, reference compound], the IC50 in assay [1] is 1.9 ± 0.2 µM; in assay [2] (mean ± SD, read-out: IC50 PC-3) it was 0.6 ± 0.1 µM; in assay [3], 4.8 ± 0.5 µM; in [4], 2.6 ± 0.2 µM; in [5] it was 3 ± 0.3 µM; in [7] (setting [14]), 7.6 ± 0.8 µM. Besides, the “nuclear morphology (Hoechst 33258), apoptosis” value in the assay with PC-3 cells [6] was “fragmentation and condensation of chromatin”. Besides, in the assay with PC-3 cells [8] (1.0 μM), the “%G0/G1” value turned out to be 28.1%. Also, in the assay with PC-3 cells [8] (1.0 μM), the “%G2/M” value was 42.4%. Further, the “%S” value in the assay with PC-3 cells [8] (1.0 μM) is given as 29.5%.

For the compound `C=C1C(=O)O[C@H]2[C@H]1CC/C(C)=C/CC[C@@]1(C)O[C@@H]21` [P, parthenolide, reference compound], in assay [9], the “NF-κB luciferase activity compared to control” value stood at 52.1%. Besides, the IC50 in assay [2] (mean ± SD, read-out: IC50 PC-3) came to 3.4 ± 0.6 µM; in assay [10], 7.6 ± 0.6 µM; in assay [11] it was 5.3 ± 0.7 µM; in [12] it was 6.8 ± 0.3 µM. In the assay on PC-3 cells [8] (4.0 μM), the “%G0/G1” value is recorded as 46.2%. In addition, the “%G2/M” value in the assay with PC-3 cells [8] (4.0 μM) was 18.2%. Also, the “%S” value in the assay on PC-3 cells [8] (4.0 μM) was 35.6%.

With `C=C1C(=O)O[C@@H]2C[C@@]3(C)C(=O)CC[C@H](C)C3=C[C@H]12` [1i, 1-carbonyl-alantolactone], the IC50 was 8.8 ± 0.7 µM in [1]; 2.5 ± 0.8 µM in assay [2] (mean ± SD, read-out: IC50 PC-3); greater than 40 µM in [2] (read-out: IC50 PC-3 (Table 3, C13-methylene modified derivatives)); 2.7 ± 0.1 µM in assay [10]; 2.5 ± 0.2 µM in [11]; 5.1 ± 0.2 µM in assay [7] (setting [14]). For the same compound, the IC50 is greater than 40 µM in assay [7] (read-out: IC50 HepG2 (Table 3, C13-methylene modified derivatives)) and 3.5 ± 0.9 µM in assay [12]. In addition, the “selectivity index (IC50 on four cancer cells versus HUVEC cells)” value in [1] (comparison of IC50 between four cancer cells and HUVEC) was 2–3. Also, the figures for the “nuclear morphology (Hoechst 33258), apoptosis” value in the assay with HepG2 cells and with PC-3 cells [6] were “Changes of nuclear morphology” and “apoptotic tendency was apparent”, respectively. Also, the “pro-caspase 3 and cleavage of PARP (Western blot)” value in assay [13] was “significant dose-dependent decrease in pro-caspase 3 and the cleavage of its substrate PARP”. For the same compound, the “%G0/G1” value with PC-3 cells [8] (1.0 μM) was 50.5%; with PC-3 cells [8] (2.0 μM) it was 47.7%; with PC-3 cells [8] (4.0 μM), 44.6%. The “%G2/M” value stood at 17.5% in the assay on PC-3 cells [8] (1.0 μM), 18.5% in the assay with PC-3 cells [8] (2.0 μM) and 19.5% with PC-3 cells [8] (4.0 μM). Besides, the “%S” value is 32.0% in the assay with PC-3 cells [8] (1.0 μM), 33.8% with PC-3 cells [8] (2.0 μM) and 35.9% with PC-3 cells [8] (4.0 μM).

Turning to `C=C1C(=O)OC2CC(C)=C(C(C)CCCOC(C)=O)C(OC(=O)CCCCCCCCCCC)C12` (stereo not shown) [ABL-L, 1-O-acetyl-6-O-lauroylbritannilactone], in the assay on cancer cells, the “fold stronger suppression against cancer cells compared with ABL” value is 4–10 fold.
